In patent US4791135A (priority 1987, dated 1988):

Assays:
[1] = tested on: P. falciparum Indochina (W-2) clone; assay: In vitro antimalarial susceptibility, 3H-hypoxanthine uptake, Indochina (W-2) clone; type: cell-based, Plasmodium falciparum; conditions: Plasmodium falciparum
Protocol: (§1) The former clone is a strain that is resistant to mefloquine and the latter, to chloroquine, pyrimethamine, sulfadoxine, and quinine.
(§2) In vitro assays were conducted using a modification of the semiautomated microdilution technique of Desjardins et al., Antimicrob. Agents Chemoether., 1979, Volume 16, page 710 and Milhous et al., Antimicrob. Agents Chemother., 1985, Volume 27, page 525. Two P. falciparum malaria parasite clones, designated as Indochina (W-2) and Sierra Leone (D-6), were utilized in susceptibility testing. They were derived by direct visualization and micromanipulation from patient isolates obtained by the Centers for Disease Control, Atlanta, GA in 1980 and 1982, respectively. The patients had acquired infections either in Vietnam or Sierra Leone. The Indochina clone is resistant to the antimalarials chloroquine, sulfadoxine, pyrimethamine, and quinine, whereas the Sierra Leone, is resistant to mefloquine but susceptible to chloroquine, quinine, sulfadoxine, and pyrimethamine. Test compounds were initially dissolved in DMSO and 70% ethanol and diluted in RPMI 1640 culture medium with 10% human plasma to 400 fold. Drugs were subsequently further diluted using the Cetus Pro/Pette (Perkin-Elmer Corp., Norwalk, CT) over a range of 1.56-100×10^-9 molar. Parasite inocula (at 0.5% parasitemia and a 1% hematocrit) were incubated for 24 hours and added to equimolar concentrations of each test compound prior to the addition of ^3 H-hypoxanthine. After a further incubation of 18 hours, particulate matter was harvested from each microtiter well using an automated cell harvester (Skatron, Inc., Sterling, VA). Uptake of ^3 H-hypoxanthine was measured using a scintillation spectrophotometer (Model LS3801, Beckman Instruments, Irvine, CA).

[2] = physchem; type: physicochemical
Protocol: To compare the relative stability of the new agents vs. artesunic acid, stability studies of compound 8d and compound 1 were conducted in 2.5% K2 CO3 /D2 O solution at room temperature and were monitored by PMR. [drawing 8]
To a 5 mm NMR tube containing 10 mg of sample was added 0.5 mL of 2.5% K2 CO3 /D2 O solution. The initial spectrum of the solution was taken within 5 minutes, and again at intervals thereafter. The extent of hydrolysis was estimated by the following equation:
% Decomposition=(B/2A+B)×100
where A=integration of H-10 (5.80 ppm, d, J=10.8 Hz, 1H) and H-12 (5.71 ppm, s, 1H) of artesunate; B=integration of the singlet at 2.42 ppm for the potassium succinate formed. With time, the intensity of potassium succinate (2.42 ppm) signal increases, while that of H-10 and H-12 of artesunate decreases. The stability study of compound 1 in 5% NaHCO3 /D2 O was also carried out by the same procedure.

[3] = tested on: P. falciparum Sierra Leone (D-6) clone; assay: In vitro antimalarial susceptibility, 3H-hypoxanthine uptake, Sierra Leone (D-6) clone; type: cell-based, Plasmodium falciparum
Protocol: as §1, §2

[4] = Water solubility; type: physicochemical
[5] = tested on: Plasmodium falciparum D-6 (Sierra Leone clone) and W-2 (Indochina clone); assay: In vitro antimalarial activity against both clones, summarised in words; type: cell-based; conditions: in words; relative to artemisinin (3) or compounds 2 and 3
Protocol: as §1
as §2, with “CA). Concentration-response data were analyzed by nonlinear regression and the IC50 's (50% inhibitory concentrations) for each compound were calculated.” for “CA).”

[6] = Stability of the free acid (PMR spectrum on standing); type: physicochemical; conditions: gradual changes in PMR spectrum on standing
Text: Hydrolysis of the ester (compound 5a) with 2.5% KOH/MeOH gave the corresponding potassium salt which was purified by reverse phase chromatography. Conversion of the salt (compound 7a) to the free acid (compound 8a) was achieved by acidification with acetic acid. The free acid appears to be unstable, as evidenced by gradual changes seen in its PMR spectrum on standing. This may be due to the instability of the acetal or ketal functions of the molecule under acidic conditions. In contrast, compounds 7b through 7d were smoothly converted to their corresponding stable free acids (compounds 8b-d).

CC1CCC2C(C)C(OCc3ccc(C(=O)O)cc3)OC3OC4(C)CCC1C32OO4 (stereo not drawn) [Compound 7d, Potassium p-(10-Dihydroartemisininoxy)methylbenzoate]
IC50 [1]: 0.92 ng/mL
stability in solution [2]: stable in solution
In vitro antimalarial activity IC50, Sierra Leone (D-6) [3]: 1.74 ng/mL
water solubility [4]: water soluble
in vitro antimalarial activity relative to parent compounds [5]: comparable in vitro activity to artemisinin

CC1CCC2C(C)C(OCC(=O)O)OC3OC4(C)CCC1C32OO4 (stereo not drawn) [Compound 8a, 2-(10-Dihydroartemisininoxy)acetic acid]
stability of free acid [6]: unstable
